How the values were obtained:
summer orange seedlings = assay: Phytotoxicity on summer orange seedlings (Experimental Example 6); type: in vivo; settings: 1,000 ppm
Experimental: (§1) Exterminating test on citrus canker. 4-year-old summer orange seedlings, planted in unglazed pots having a diameter of 20 cm, were employed in this test. Eighty percent (80%) wettable powder of the present invention was diluted with water, and sprayed over the seedlings in an amount of 50 ml per pot. The leaves of the seedlings were inoculated Xanthomonas citri by means of a needle. After the inoculation, the seedlings were maintained in a moist chamber at 25° C for 24 hours. Then the pots were transferred into the greenhouse. Streptomycin 20% wettable powder was used as a control, and tested by the same method. After 2 weeks after the inoculation, degrees of disease attack were observed, and an "Effect Index" was calculated as follows: [formula]

Staphylococcus oureus = assay: Region of growth-inhibition around treated cotton cloth (Example 26); type: cell-based; settings: emulsifiable concentrate diluted 100 times
Experimental: (§2) The emulsifiable concentrates which were prepared by Example 20 were diluted with water 100 times to form an emulsion. A cloth of cotton was soaked into each emulsion for 2 minutes. The clothes were dried at room temperature and cut into a square of which a side was 1 cm long. Each kind of test bacteria and fungi was inoculated, separately, on plates of potato-agar and one square cloth placed on each of such plates. Test bacteria and fungi were cultivated at 28° C for 4 days. The width of the region of growth-inhibition which was formed a circumference of the cloth was measured.

Aspergillus niger [1] = assay: as above; type: cell-based; settings: emulsifiable concentrate diluted 100 times
Experimental: as §2

Bacillus subtilis [2] = assay: as above; type: cell-based; settings: emulsifiable concentrate diluted 100 times
Experimental: as §2

Penicillium Citrinum [3] = assay: as above; type: cell-based; settings: emulsifiable concentrate diluted 100 times
Experimental: as §2

[4] = tested on: Rhizoctonia solani (damping-off of cucumber); assay: Exterminating test on damping-off of cucumber (Experimental Example 3); type: in vivo; settings: 1,000 ppm, soil drench 50 ml per pot, 10 days
Experimental: Exterminating test on damping-off of cucumber
The pots (diameter, 12 cm) were filled with field soil and then soil infected by adding Rhizoctonia solani in an amount of 5 grams per pot uniformly into the pots. Thereafter, 10 seeds of cucumber (variety: Azumamidori) were sown in each pot.
Eighty percent (80%) wettable powder of the present invention was diluted with water to obtain a suspension and each pot was drenched with the suspension in an amount of 50 milliliters. Then, the pots were transferred to the greenhouse. Fifty percent (50%) wettable powder of pentachloronitro benzene (hereinafter referred to as PCNB) on the market was used as a control and tested by the same method. After 10 days of the inoculation, degrees attacked by the pathogen were observed and a "Percentage of healthy seedlings" was calculated. The "Percentage of healthy seedlings" was calculated as follows: [formula]

Aspergillus niger [5] = assay: Minimum inhibitory amount, dilution methods (Example 24); type: cell-based; settings: (1) potato-dextrose agar dilution method
Excerpt: (§3) Bactericidal activity and fungicidal activity of the active compounds of the present invention were examined by potato-dextrose agar dilution method, or [2] glucose bouillon medium dilution method. The results are shown in Table 10 below as the minimum inhibitory concentration (the minimum concentration of active compound found to produce 100% control of the test bacteria and fungi).

Bacillus subtilis [6] = assay: as above; type: cell-based; settings: (2) glucose bouillon medium dilution method
Excerpt: as §3

Penicillium Citrinum [7] = assay: as above; type: cell-based; settings: (1) potato-dextrose agar dilution method
Excerpt: as §3

Staphylococcus aureus [8] = assay: as above; type: cell-based; settings: (2) glucose bouillon medium dilution method
Excerpt: as §3

Escherichia coli [9] = assay: as above; type: cell-based; settings: (2) glucose bouillon medium dilution method
Excerpt: as §3

Cladosporium harbarum [10] = assay: as above; type: cell-based; settings: (1) potato-dextrose agar dilution method
Excerpt: as §3

green algae = assay: Degree of propagation on slime test boards (Example 27); type: cell-based; settings: same method, shaking culture for 2 days
Experimental: Zero point zero two (0.02) part of active compounds in the form of 10% water soluble concentrate which was prepared by Example 23 was added into 100 parts of Waxman's liquid medium. Peices of Wood iron (hereafter referred to as the slime test boards) were soaked into the Waxman's liquid medium. The bacteria which were gathered from circular water system were inoculated upon the Waxman's liquid medium and incubated at 27°-34° C by shaking culture for 2 days. The degree of propagation of the bacteria on the slime test boards was examined.
Thegrowth-inhibiting activity of active compounds against the fungi and the green algae was also examined by the same method as mentioned above.
The degree of propagation of the bacteria, fungi or green algae on the test boards is defined in terms of the following symbols.

[11] = tested on: Cladosporium cucumerinum (cucumber scab); assay: Exterminating test on cucumber scab (Experimental Example 2); type: in vivo; set-up: scale not given here; settings: 500 ppm, 5 days after inoculation
Experimental: Exterminating test on cucumber scab
(§4) The cucumber seeds (variety: Sagamihanjiro) were sown in pots (diameter 18 cm). Eighty percent (80%) wettable powder (contents of active compound: 80%) of the present invention was diluted with water to obtain a suspension. The suspension was sprayed over the cucumber seedlings of the stage of 3-4 leaves in an amount of 20 ml per pot. After 24 hours, these pots were inoculated by means of spray of spore suspension of Cladosporium cucumerinum. The thus-inoculated seedlings were placed in a moist chamber at 20° C for 24 hours. The pots were continuously kept in a greenhouse at 20° C. The following wettable powders on the market were used as controls.
70% wettable powder of 1,2-bis (3-methoxy carbonyl-2-thioureid) benzene (hereinafter referred to as "thiophanate methyl") on the market.
75% wettable powder of ethylene bis (dithiocarbamic acid) manganese (hereinafter referred to as "maneb") on the market. After 5 days of the inoculation, degrees attached by the pathogen were observed and the results were shown in Table 3 with an "Infected Index". The "Infected Index" was calculated as follows: [formula] A : Number of leaves which were killed by hard attack B : Number of leaves severely attacked
C : number of leaves slightly attacked
D : number of healthy leaves

[12] = tested on: Xanthomonas citri (citrus canker); assay: Exterminating test on citrus canker (Experimental Example 6); type: in vivo; settings: 1,000 ppm, 2 weeks after inoculation
Experimental: as §1

[13] = tested on: Fusarium wilt of cucumber; assay: Exterminating test on Fusarium wilt of cucumber (Experimental Example 4); type: in vivo, Fusarium oxysporum f, cucumerinum; settings: 500 ppm, soil drench 100 ml per pot, two weeks
Experimental: Exterminating test on Fusarium wilt of cucumber Twenty (20) grams of infected soil was added uniformly into each pot which was filled with steam sterilized field soil, then 18 seeds of cucumber (variety; Tokiwazibai) were sowed in each pot. Eighty percent (80%) wettable powder of the present invention was diluted with water to obtain a suspension, and each pot was drenched with the suspension in an amount of 100 ml. Fifty percent (50%) wettable powder of methyl-1-(butylcarbamoyl) 2-benzimidazol carbamate (hereinafter referred to as Benlate) on the market was used as a control and tested by the same method. After two weeks of planting, degrees attacked by the pathogen was observed and a "percentage of healthy seedlings" was calculated as follows: [formula]

[14] = tested on: Aspergillus niger, Penicillium citrinum, Cladosporium harbarum and chaetomium globosum; assay: Degree of growth inhibition of fungi on treated beach plates (Example 25); type: cell-based; set-up: scale not given here; settings: numerical rating, 2 weeks
Experimental: The emulsifiable concentrates which were prepared by Example 20 were diluted with water 400 times and 800 times to form emulsions.
(§5) The square plates of beach of which a side was 5 cm long and thickness was 5 mm were dipped into the emulsion for 2 minutes and dried for 24 hours at room temperature.
(§6) The square plates were placed on the surface of agar plates. The suspensions which contained spores of Aspergillus niger, Penicillium citrinum, Cladosporium harbarum and chaetomium globosum were respectively sprayed on the agar plates and the square plates.
The test fungi were cultivated in the incubator at the humidity of 95% and the temperature of 28° C for 2 weeks. The degree of growth inhibition is defined in terms of the following numerical ratings.

[15] = tested on: cucumber seedlings (variety: Sagamihanjiro); assay: Phytotoxicity on cucumber seedlings (Experimental Example 2); type: in vivo; settings: 500 ppm
Experimental: as §4

Aspergillus niger [16] = assay: Minimum inhibitory concentration, dilution methods (Example 14); type: cell-based; settings: (1) potato-dextrose agar dilution method
Excerpt: as §3, with “Bacteriocidal activity” for “Bactericidal activity”, “method, [2] waxman's liquid medium dilution method” for “method,”, “or [3]” for “or [2]”, “Table 4” for “Table 10”

Bacillus subtilis [17] = assay: as above; type: cell-based; settings: (3) glucose bouillon medium dilution method
Excerpt: as §3, with “Bacteriocidal activity” for “Bactericidal activity”, “method, [2] waxman's liquid medium dilution method” for “method,”, “or [3]” for “or [2]”, “Table 4” for “Table 10”

Penicillium Citrinum [18] = assay: as above; type: cell-based; settings: (1) potato-dextrose agar dilution method
Excerpt: as §3, with “Bacteriocidal activity” for “Bactericidal activity”, “method, [2] waxman's liquid medium dilution method” for “method,”, “or [3]” for “or [2]”, “Table 4” for “Table 10”

Staphylococcus aureus [19] = assay: as above; type: cell-based; settings: (3) glucose bouillon medium dilution method
Excerpt: as §3, with “Bacteriocidal activity” for “Bactericidal activity”, “method, [2] waxman's liquid medium dilution method” for “method,”, “or [3]” for “or [2]”, “Table 4” for “Table 10”

Escherichia coli [20] = assay: as above; type: cell-based; settings: (3) glucose bouillon medium dilution method
Excerpt: as §3, with “Bacteriocidal activity” for “Bactericidal activity”, “method, [2] waxman's liquid medium dilution method” for “method,”, “or [3]” for “or [2]”, “Table 4” for “Table 10”

Cladosporium harbarum [21] = assay: as above; type: cell-based; settings: (1) potato-dextrose agar dilution method
Excerpt: as §3, with “Bacteriocidal activity” for “Bactericidal activity”, “method, [2] waxman's liquid medium dilution method” for “method,”, “or [3]” for “or [2]”, “Table 4” for “Table 10”

[22] = tested on: Aspergillus niger, Penicillium citrinum, Cladosporium harbarum and chaetomium globosum; assay: Degree of growth inhibition of fungi on treated beach plates (Example 17); type: cell-based; set-up: scale not given here; settings: numerical rating, 2 weeks
Experimental: The emulsifiable concentrates which were prepared by Example 10 were diluted with water 400 times and 800 times to form emulsions.
as §5, §6
The test fungi were cultivated in the incubator at the humidity of 95% and the temperature of 28° C for 2 weeks.
The degree of growth inhibition is defined in terms of the following numerical ratings.

[23] = tested on: seedling blight of rice plant (pathogen Fusarium sp. and Rhizoctonia sp.); assay: Exterminating test on seedling blight of rice plant (Experimental Example 1); type: in vivo; settings: 0.25g/box a.i., 5% dust mixed with soil
Experimental: Exterminating test on seedling blight of rice plant Nursery boxes (60 × 30 × 3 cm) were filled with soil which were contaminated with pathogen (Fusarium sp. and Rhizoctonia sp.) The dust in which the present compound was contained in a ratio of 5% by weight was added in the box in a ratio of 5 grams per box and mixed well with soil. Thereafter, seeds of rice plant (variety: Nihonbare) were sowed in drills at a rate of 0.3 liter per box and grown up in a lighting chamber at 17° C. After 7 days from the sowing, the boxes were carried out in the field. Furthermore, 10 days thereafter the observations were made. Four percent (4%) dust of 3-hydroxy-5-methyl isoxazol (hereinafter referred to as hydroxyisoxazol) on the market was used as a control and tested by the same method. The test results are shown in Table 2 with a "percentage of healthy seedlings". The percentage of healthy seedlings was calculated as follows: […]

Row | Structure (SMILES) | Phytotoxicity (summer orange seedlings) | Percentage of healthy seedlings [4] [%] | Minimum inhibitory amount (Aspergillus niger [5]) [µg/mL] | Minimum inhibitory amount (Bacillus subtilis [6]) [µg/mL] | Minimum inhibitory amount (Penicillium Citrinum [7]) [µg/mL] | Minimum inhibitory amount (Staphylococcus aureus [8]) [µg/mL] | Minimum inhibitory amount (Escherichia coli [9]) [µg/mL] | Minimum inhibitory amount (Cladosporium harbarum [10]) [µg/mL] | Effect Index [12] | Percentage of healthy seedlings [13] [%] | Degree of growth inhibition ([14]; 0.0125 %) | Degree of growth inhibition ([14]; 0.025 %) | also measured
1 | O=C(NC=C(Cl)Cl)c1cc(Br)ccc1[O-].O=C(NC=C(Cl)Cl)c1cc(Br)ccc1[O-].[Zn+2] [compound 25] | Nil | 80 | 20 | 5 | 20 | 5 | 60 | 10 | 80.6 | 49.5 | 2 | 3 | width of the region of growth-inhibition (Staphylococcus oureus): 6 mm; width of the region of growth-inhibition (Aspergillus niger [1]): 6 mm; width of the region of growth-inhibition (Bacillus subtilis [2]): 6 mm; width of the region of growth-inhibition (Penicillium Citrinum [3]): 5 mm; Degree of propagation (green algae): + (the area of propagation is 1-25% on the slime test boards.); Infected Index [11]: 12.1; Phytotoxicity [15]: Nil
2 | O=C(NC=C(Cl)Cl)c1ccccc1[O-].O=C(NC=C(Cl)Cl)c1ccccc1[O-].[Cu+2] [compound 26] | Nil | 100 |  |  |  |  |  |  | 47.5 | 58.0 |  |  | minimum inhibitory concentration (Aspergillus niger [16]): 10 mc g/ml; minimum inhibitory concentration (Bacillus subtilis [17]): 5 mc g/ml; minimum inhibitory concentration (Penicillium Citrinum [18]): 10 mc g/ml; minimum inhibitory concentration (Staphylococcus aureus [19]): 5 mc g/ml; minimum inhibitory concentration (Escherichia coli [20]): 60 mc g/ml; minimum inhibitory concentration (Cladosporium harbarum [21]): 5 mc g/ml; Degree of growth inhibition ([22]; 0.0125 %): 3; Degree of growth inhibition ([22]; 0.025 %): 3
3 | O=C(NC=C(Cl)Cl)c1cc(Br)ccc1[O-].O=C(NC=C(Cl)Cl)c1cc(Br)ccc1[O-].[Mn+2] [compound 29] | Nil | 55 | 20 | 5 | 20 | 10 | 60 | 10 | 56.2 | 57.5 | 2 | 3 | Percentage of healthy seedlings [23]: 69.8%
